Series [1] can be described thus: Pharmacokinetics in Beagle dogs. Format: in vivo. The settings on record: dog; for MRT inf: read-out: MRT0-∞. On the procedure:
Pharmacokinetics of compound A13 was assessed in dogs. […] For pharmacokinetic evaluation, 3 male Beagle dogs were intravenously (IV) dosed (1 mg/kg body weight) and 3 male Beagle dogs were orally (PO) dosed (10 mg/kg body weight) with a test compound. Blood (approximately 1.0 mL) was collected via femoral vein into tubes containing K3EDTA anticoagulant at 0, 0.017, 0.083, 0.5, 1, 2, 4, 6, 8, and 24 hours post-dosing. Plasma samples were analyzed by LC-MS/MS. The analytical results were confirmed using quality control samples for intra-assay variation. The accuracy of >66% of the quality control samples was between 80-120% of the known value(s). A standard set of pharmacokinetic parameters were generated from concentration data including Area Under the Curve (AUC0-t and AUC0-inf), elimination half-lives, clearances, volume of distribution and bioavailabilities (based on AUC0-t), maximum plasma concentration (C0; Cmax), and time to reach maximum plasma concentration (Tmax).

For series [2], the system named is Ca^2+-ATPase. Briefly: Ca2+-ATPase assay, microsomal preparations from HEK 293 cells. It is filed as biochemical, human. As for the experimental part: A Ca^2+-ATPase assay was performed using microsomal preparations from HEK 293 cells at a series of calcium concentrations corresponding to the physiological range, relative to controls. The ATP hydrolysis rate was measured over a range of calcium concentrations in the presence of test compounds using an NADH-linked, enzyme-coupled ATPase assay adapted for 96-well microplates, with Vmax determined by fitting the ATPase calcium-dependence to the Hill function. […] CaCl2 was added to set free [Ca^2+] to the specific values.

The test system of series [3] is SERCA (SR vesicles). Briefly: Activation of SERCA, increase in Vmax. It is filed as biochemical.
A short description of series [4]: Pharmacokinetics in CD-1 mice. Format: in vivo, mouse. The conditions noted are these: for F / AUC / Cmax / half-life: CD-1 mice; for F: 10 mg/kg P.O. vs 2 mg/kg i.v.; for AUC / Cmax / half-life: mouse, plasma, 2 mg/kg i.v. or 10 mg/kg P.O.; for pharmacokinetic properties as measured by CMAX, AUC and F (%): compared with other SERCA modulators, see Table 6. The method in brief:
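CD-1 mice (triplicate) dosed 2 mg/kg i.v. or 10 mg/kg oral gavage, formulated 1 mg/mL in DMSO/Tween 80/water (10/10/80). EDTA plasma sampled 0.25–24 h, acetonitrile-precipitated and quantified by positive-ion MRM LC/MS/MS against internal standard; PK parameters fitted from concentration–time data.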

Series [5] concerns human islet microtissues. As to the kind of experiment: Protection of human pancreatic islets under cytokine stress. Format: cell-based. The settings on record: 168 h, compound 5 μM, cytokine cocktail IL1-β, IFN-γ, TNF-α, 7 days, read-out: increase in viability over baseline (total ATP content). As for the experimental part: Human pancreatic islet microtissues treated with cytokines were used to model the conditions of Type 1 Diabetes in vitro. This study tested the effects of compounds on […] viability in human islets under cytokine stress. The model consisted of human islet microtissues from an HLA-A2 positive donor grown and separated in a 96-well plate (1 microtissue per well). The microtissues were treated for 7 days with a cocktail of cytokines (IL1-β 5 ng/mL, IFN-γ 25 ng/mL, TNF-α 25 ng/mL) and compound (5 μM) or vehicle. There were 6 microtissues treated per compound or vehicle. At day 7, the total ATP content was measured using CellTiter-Glo (Promega).

A short description of series [6]: Pharmacokinetics in Sprague Dawley rats. The settings on record: rat; for AUC(0-t): read-out: AUC0-t; for MRT inf: read-out: MRT0-∞; for Vd: read-out: Vz; for F: PO 10 mg/kg vs IV 2 mg/kg. Format: in vivo, rat. On the procedure:
Blood was drawn at 5 min, 15 min, 30 min, 1 hr, 2 hrs, 4 hrs, 6 hrs, and 8 hrs into EDTA containing tubes and plasma was harvested by centrifugation. Plasma (25 μL) was treated with acetonitrile (125 μL) containing an internal standard. The sample was then centrifuged for 5 min at 4,000 rpm in a tabletop centrifuge and the filtrate was collected. The filtrate was injected onto a Thermo Betasil C18 HPLC column 5 (50×2.1 mm). Mobile Phase A was water with 0.1% formic acid. Mobile Phase B was acetonitrile with 0.1% formic acid. […] An API Sciex 4000 equipped with a turbo ion spray source was used for all analytical measurements. A positive ion MRM method was developed. Peak areas of the product ion were measured against the peak areas of the internal standard. Data was fit using WinNonLin (Pharsight Corporation, Mountain View, CA).

The test system of series [7] is CSM14.1 cells. Briefly: ER stress cell survival assay (thapsigargin).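 On cell survival: survival read as CellTiter-Glo luminescence after overnight incubation.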 Format: cell-based. The conditions noted are these: for Cell Survival: compound 2 μM, about 15 μM thapsigargin, CSM14.1 cells.
The test system of series [8] is N2a cells. As to the kind of experiment: Protection against thapsigargin (TG)-induced cell death, N2a. Format: cell-based, mouse. The settings on record: compound 20 μM; thapsigargin 1 μM; 24 hrs. On the procedure:
(§1) Protection against Thapsigargin (TG)-induced Cell-death. Human embryonic kidney (HEK293) cells were grown in Dulbecco's Modified Eagle's Medium (DMEM) with 10% FBS and 1% antibiotic antimycotic solution (ABAM). Mouse neuroblastoma (N2a) cells were grown in 1:1 DMEM:OPTI-MEM® with 5% FBS and 1% ABAM. All cells were grown in 10% CO2 in a humidified environment of the incubator. Cells grown in 96-well plates were exposed to a test compound (20 μM) for 2 hrs before addition of thapsigargin (15 μM for HEK293 cells and 1 μM for N2a cells) to induce ER stress. After incubation in cell-culture incubator for 24 hrs, ALAMARBLUE® regent (10% v/v) was added to the wells. Fluorescence reading was taken 2 hrs after the addition of the ALAMARBLUE® regent. Cell-viability was calculated as a percentage of relative fluorescence unit (RFU) compared to control.
(§2) The results are summarized in Table 2, where A represents a value greater than 50% cell rescue, B represents a value between 10% to 50% cell rescue, C represents a value between 1% to 10% cell rescue, and D represents a value no greater than 1% cell rescue.

Series [9] has as its system ob/ob mice. Briefly: Effect on the level of blood glucose in ob/ob mice. The settings on record: for blood glucose: 10 or 50 mg/kg i.p. once a day for 5 days, as early as day 2; for glucose level after the last injection: for over a week after the last injection. Format: in vivo, mouse. As for the experimental part: Fasting glucose was measured at baseline and 10 hours after the administration of the test compound. Glucose levels were measured in blood samples drawn from the tail vein using the OneTouch Ultra 2 Meter (LifeScan, Inc.).

Series [10] relates to N2a cells. Briefly: Protection against hydrogen peroxide-induced cell death, N2a. It is filed as cell-based, mouse. The settings on record: compound 40 μM; hydrogen peroxide 200 μM. The method in brief:
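N2a cells were pretreated 2 h with compound at 40 μM, then exposed to 200 μM H2O2 for 40 min. AlamarBlue (10% v/v) was added and fluorescence read 2 h later. Viability expressed as % RFU of control, reported as % cell rescue.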

In series [11] the test system is HEK293 cells. As to the kind of experiment: Protection against thapsigargin (TG)-induced cell death, HEK293. It is filed as cell-based, human. The settings on record: compound 20 μM; thapsigargin 15 μM; 24 hrs. On the procedure: as §1, §2
Where [12] appears, read: male, Beagle, plasma, IV 1 mg/kg.
Setting [13] is: male, Beagle, plasma, PO 10 mg/kg.
Setting [14] is: Sprague Dawley, in vivo, IV 2 mg/kg.
Setting [15] is: Sprague Dawley, in vivo, PO 10 mg/kg.

`Cc1ccc2cccc(NC(=O)c3cccc(OC(C)C)c3)c2n1` [Compound A13, 3-Isopropoxy-N-(2-methylquinolin-8-yl)benzamide] came in with a F in series [1] (PO 10 mg/kg vs IV 1 mg/kg) of 1.4%. Besides, in [1] (setting [12]), the AUC(0-inf) (in general, the area under the concentration-time curve extrapolated to infinity) was 96 ± 12 ng·h/mL; the AUC(0-t) was 95 ± 12 ng·h/mL; the Cmax – broadly, the maximum level reached in the sampled fluid or tissue – turned out to be 2200 ± 500 nM; the Tmax (usually the time at which the peak concentration occurs) is 1.2 min. Moreover, in series [1] (setting [12]), the clearance – broadly, the volume of plasma or blood freed of the substance per unit of time – was 177 mL/min/kg; the half-life – broadly, the time in which the quantity being followed falls by half – is 20.4 min; the MRT inf stood at 12.6 min. Further, the Vd in series [1] (male, Beagle, plasma, IV 1 mg/kg, read-out: Vz) worked out at 5.4 L/kg. Besides, in series [1] (setting [13]), the highest level (Cmax) was 80 ± 60 nM, the time to peak (Tmax) amounted to 21.6 min, the half-life is 22.2 min and the MRT inf is 37.2 min. In [2], the “increase in baseline ATPase activity” value is 10-15%. In addition, the “Increase in Vmax at 10 μM” value in [3] is “B′ (B′ represents an increase between 20 to 50%)”. Also, in [4], the F is given as 3.1%; the AUC – broadly, concentration integrated over time – is 26 ng·h/mL; the concentration peaked (Cmax) at 120 nM; the half-life was 50.4 min. Besides, the viability (in general, a per cent measure of how many cells are alive, often set against a control) at 5 µM in series [5] lay within 20 to 50%. Also, in series [6] (setting [14]), the AUC(0-inf) stood at 847 ± 29 ng·h/mL, the highest level (Cmax) was 8370 ± 1100 nM, the time to peak (Tmax) stood at 4.8 min and the clearance is 39.3 mL/min/kg. In [6] (setting [14]), the half-life was 121 min, the AUC(0-t) was found to be 842 ± 31 ng·h/mL, the MRT inf was found to be 27 min and the Vd was 6.87 L/kg. In [6] (setting [15]), the area under the curve AUC(0-inf) stood at 234 ± 154 ng·h/mL, the concentration peaked (Cmax) at 800 ± 350 nM, the Tmax was determined as 25.2 min and the half-life was 22.8 min. Moreover, in series [6] (setting [15]), the AUC(0-t) is 232 ± 154 ng·h/mL and the MRT inf is 38.4 min. Further, the F in series [6] was 5.5%.

In the case of `Cc1ccc(C(=O)Nc2cccc3ccc(C)nc23)c(Cl)c1` [Compound A17, 2-Chloro-4-methyl-N-(2-methylquinolin-8-yl)benzamide], in series [3], the “Increase in Vmax at 10 μM” value is listed as “A′ (A′ represents an increase greater than 50%)”. Moreover, in series [5], the viability at 5 µM lay within 10 to 20%. Besides, in series [6] (setting [14]), the AUC(0-inf) worked out at 381 ± 66 ng·h/mL, the highest level (Cmax) was 4420 ± 640 nM, the time to peak (Tmax) came to 1.2 min and the half-life is 54 min. In series [6] (setting [14]), the AUC(0-t) was 380 ± 66 ng·h/mL, the MRT inf was determined as 35.4 min and the Vd amounted to 7.01 L/kg. Moreover, in series [6] (setting [15]), the AUC(0-inf) stood at 587 ± 120 ng·h/mL, the Cmax is 1690 ± 740 nM, the time to peak (Tmax) was 15 min and the AUC(0-t) amounted to 583 ± 119 ng·h/mL. In addition, the MRT inf in series [6] (setting [15]) came to 67.8 min. Besides, in series [6], the F worked out at 31%. Also, the EC50 (as a rule, the concentration at which the effect is half-maximal) in [7] (dose-response) lay in the range of 20 to 100 µM.

For `CCNc1ccc(C(=O)Nc2cccc3ccc(C)nc23)cc1` [Compound C19, 4-(Ethylamino)-N-(2-methylquinolin-8-yl)benzamide], the “N2a Cells (TG-induced) cell rescue” value in [8] is listed as “B (B represents a value between 10% to 50% cell rescue)”. For the same compound, the “increase in baseline ATPase activity” value in series [2] is on record as 10-15%. Also, in series [4], the F amounted to 27%; the “pharmacokinetic properties as measured by CMAX, AUC and F (%)” value is “significantly improved pharmacokinetic properties”; the area under the curve (AUC) is 344 ng·h/mL; the highest level (Cmax) was 850 nM. The compound also showed a half-life in series [4] of 138 min. Besides, the viability at 5 µM in [5] was 20 to 50%. Besides, the “Cell Survival” value in series [7] is “A (A represents a value greater than 50%)”. In [9], the blood glucose entry is recorded as “significantly lowered” and the “glucose level after the last injection” value is “identical to lean mice”. For the same compound, the “N2a Cells (H2O2-induced) cell rescue” value in [10] was “A (A represents a value greater than 50% cell rescue)”. The “HEK293 Cells (TG-induced) cell rescue” value in [11] was “A (A represents a value greater than 50% cell rescue)”.

Consider `Cc1ccc2cccc(NC(=O)c3ccc(NC(C)C)cc3)c2n1` [Compound C20, 4-(Isopropylamino)-N-(2-methylquinolin-8-yl)benzamide], for which the “N2a Cells (TG-induced) cell rescue” value in series [8] is “B (B represents a value between 10% to 50% cell rescue)”. The “increase in baseline ATPase activity” value in [2] is “greater than 15%”. In series [4], the F was determined as 28%; the “pharmacokinetic properties as measured by CMAX, AUC and F (%)” value is recorded as “significantly improved pharmacokinetic properties”; the area under the curve (AUC) came to 330 ng·h/mL; the peak level (Cmax) was 860 nM. Besides, the half-life in series [4] was 39.6 min. For the same compound, the viability at 5 µM in [5] lay in the range of 20 to 50%. Moreover, in series [7], the “Cell Survival” value is “A (A represents a value greater than 50%)”. Besides, in series [9], the blood glucose result is listed as “significantly lowered” and the “glucose level after the last injection” value is “identical to lean mice”. In addition, in [10], the “N2a Cells (H2O2-induced) cell rescue” value is “B (B represents a value between 10% to 50% cell rescue)”. For the same compound, the “HEK293 Cells (TG-induced) cell rescue” value in [11] is on record as “B (B represents a value between 10% to 50% cell rescue)”.

Source of the values: US11890279B2, “Quinolines that modulate SERCA and their use for treating disease” (Neurodon Corporation, priority 2020, dated 2024).
